These results are taken from patent US12465607B2, “ALK inhibitors for treatment of ALK-negative cancer and plasma cell-mediated diseases” (UNIVERSITETET I OSLO, priority 2019, dated 2025).

For test [1], the system named is CD138+ multiple myeloma cells. In words: Viability of patient CD138+ multiple myeloma cells, CellTiterGlo 72 hr. In kind it is cell-based. The conditions noted are these: Homo sapiens, Multiple myeloma cell, patient-derived CD138+ multiple myeloma cells. (In general: ATP-based viability assays read luminescence as a measure of living cells.)
Experimental: Viability was measured by CellTiterGlo.
Seven multiple myeloma patient samples were included. Patients were due for treatment after second relapse (patient number 1701), third relapse (2101, 2021, 1802, 9041, 2504) or fourth relapse (2201).
Bone marrow mononuclear cells (BMMCs) were prepared from patient bone marrow aspirates by Lymphoprep density gradient centrifugation. After CD8 depletion by Dynabeads (Life Technologies) BMMCs were subsequently stimulated by expanding Th cells in the presence of Human T-Activator CD3/CD28 Dynabeads (Life Technologies) and 100 U/ml human interleukin-2 (hIL-2, Roche, Mannheim, Germany). After 48 h, BMMCs were subjected to CD138+ enrichment to isolate multiple myeloma plasma cells using MACS CD138+ microbeads (Milteny Biotec, Bergisch Gladbach, Germany).
6 crizotinib concentrations were tested, in 10-fold dilutions covering a 0.1-10,000 nM concentration range (plates dispensed by an Echo acoustic dispenser, LabCyte Inc., San Jose, CA, USA).
The plate was incubated in a humidified environment at 37° C. and 5% CO2. Cell viability was determined after 72 hr using the CellTiterGlo (Promega, Madison, WI, USA) ATP assay according to the manufacturer's instructions and using an Envision Xcite plate reader (Perkin Elmer, Shelton, CT, USA). […]
The target of the next test is T1, LTK (Homo sapiens, UniProt P29376).
T1 construct: expressed in transfected cells; host or cells: HeLa cells
T1 sequence (P29376 17-864): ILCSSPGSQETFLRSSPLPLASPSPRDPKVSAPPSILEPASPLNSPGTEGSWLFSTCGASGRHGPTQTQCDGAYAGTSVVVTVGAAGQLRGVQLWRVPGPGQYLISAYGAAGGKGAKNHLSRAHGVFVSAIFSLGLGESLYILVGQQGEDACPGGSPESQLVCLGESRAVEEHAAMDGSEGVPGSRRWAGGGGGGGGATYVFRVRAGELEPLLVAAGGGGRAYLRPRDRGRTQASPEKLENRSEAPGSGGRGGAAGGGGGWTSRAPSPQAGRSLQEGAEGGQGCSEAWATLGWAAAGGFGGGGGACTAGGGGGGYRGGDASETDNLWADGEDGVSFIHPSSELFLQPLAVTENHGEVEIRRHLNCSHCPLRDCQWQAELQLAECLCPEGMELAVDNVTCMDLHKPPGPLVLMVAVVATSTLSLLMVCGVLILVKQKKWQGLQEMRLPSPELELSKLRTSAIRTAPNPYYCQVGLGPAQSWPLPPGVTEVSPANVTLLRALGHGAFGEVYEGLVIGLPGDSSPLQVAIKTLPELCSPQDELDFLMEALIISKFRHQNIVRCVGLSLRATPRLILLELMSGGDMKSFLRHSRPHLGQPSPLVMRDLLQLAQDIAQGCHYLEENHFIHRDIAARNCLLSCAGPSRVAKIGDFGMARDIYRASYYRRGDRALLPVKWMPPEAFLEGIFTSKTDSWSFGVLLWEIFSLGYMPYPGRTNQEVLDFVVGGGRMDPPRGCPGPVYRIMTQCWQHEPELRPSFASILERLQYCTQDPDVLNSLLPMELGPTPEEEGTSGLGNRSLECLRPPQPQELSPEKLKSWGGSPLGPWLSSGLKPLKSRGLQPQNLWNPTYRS
The conditions noted are these: Centonze et al.; cited from earlier work.

Another test relates to HeLa cells. In words: ER-to-Golgi trafficking in HeLa cells (ERES staining, mannosidase-II RUSH reporter). It counts as cell-based. The conditions noted are these: RUSH reporter 20 min after biotin. The procedure: In A, HeLa cells expressing flag-tagged LTK were treated with 1 μM of crizotinib or ceritinib for 30 minutes. Afterwards, cells were lysed and immunoblotted against phosphorylated LTK, which is used as a surrogate for the active form of LTK. […] B, HeLa cells were treated with 1 μM ceritinib for 30 minutes followed by fixation and staining for Sec31A to label ERES. Cells were imaged by confocal microscopy and ERES were counted using ImageJ. C, HeLa cells stably expressing mCherry-tagged mannosidase-II RUSH reporter. Cells were treated with biotin to release the reporter from the ER. After 20 min, a time point where most of the reporter has reached the Golgi, cells were fixed and immunostained for GM130 to label the Golgi apparatus. […] D, IgA secreting AMO-1 cells were treated for 3 h with the indicated doses of crizotinib and the amount of IgA in cell supernatant was determined by ELISA.

In test [2] the test system is B-cell blasts (plasma blasts/cells). As to the kind of experiment: Viability of in vitro-generated B-cell blasts (plasma blasts/cells), CellTiterGlo 72 h. In kind it is cell-based. The conditions noted are these: Homo sapiens, day 3 B-cell blasts from 5 donors. The procedure: CD19^+ B-cells from 5 blood bank donors were stimulated by adherent murine L cells expressing CD40L, BAFF and April for 3 days to make B-cell blasts (plasma blasts/cells). plasma blasts/cells were tested for sensitivity to crizotinib for 72 h (CellTiterGlo).
CD19^+ B-cells from 5 blood bank donors were stimulated by adherent murine L cells expressing CD40L, BAFF and April for 3 days to make B-cell blasts (plasma blasts/cells). Washed plasma blasts/cells were detached and plated into 384 well format (10,000 cells/well) and tested against crizotinib at 6 concentrations in 10-fold dilutions covering a 10^−3-10 μM concentration range. Cell viability was determined after 72 h using the CellTiterGlo. Relative percentage cell viability was calculated by normalising luminescence units for each well to negative controls (DMSO 0.1%) and positive control wells (100 μM BzCl) and curve-fitting conducted to obtain the IC50.

In another test the test system is ARH77. As to the kind of experiment: Myeloma cell line viability, CCK-8, 24 hr. It counts as cell-based, human. The conditions noted are these: ARH77, 24 h. The procedure:
(§1) In A, HeLa cells expressing inducible IgM (heavy and light chain) were treated with mifepristone to induce IgM expression over a period of 2 weeks. Afterwards, cells were treated with 1 μM crizotinib for 24 h followed by lysis and immunoblotting for caspase 3. […] Cleavage of caspase 3 is indicative of apoptosis induction. + and − indicate cells with or without mifepristone treatment, respectively. B, Concentration-response curves for the effect of crizotinib treatment (24 h) on the viability of three different myeloma cell lines. Results are the means of three independent experiments. C, Expression levels of LTK and ALK mRNA in the indicated myeloma cell lines determined by qPCR.
The cell lines used were the human multiple myeloma cell lines L363 (DSMZ catalogue number ACC 49), AMO-1 (DSMZ catalogue number ACC 538) and ARH-77 (ATCC CRL-1621).
Multiple myeloma cell lines were maintained in RPMI-1640 culture medium (Sigma-Aldrich, Buchs, Switzerland) supplemented with 10% heat-inactivated fetal bovine serum (FBS), 100 μg/ml streptomycin and 100 U/ml penicillin/streptomycin (Sigma-Aldrich, Buchs, Switzerland). […]
The viability of the cells was determined 24 hr post treatment using Cell Counting Kit-8 (CCK-8; MedChemExpress, NJ, USA) according to the manufacturer's instructions.

The next test concerns plasma cells. In words: Viability of in vitro-generated IRF4/BLIMP1 double positive end stage plasma cells. In kind it is cell-based. The conditions noted are these: Homo sapiens, B-cell, 120 h; B-cells stimulated 5 days, inhibitor day 5-7. The text has this:
Negatively selected normal B-cells from blood bank donors were stimulated with sCD40L, IL-21, IL-4 for 5 days. This protocol allows generation of 10-20% end differentiated plasma cells that express IRF4 and BLIMP1. From day 5-7, cells were exposed to titred crizotinib in A, or ceritinib in B.
In A and B, IRF4 vs BLIMP1 in gated CD19^+ B cells is shown. IRF4 and BLIMP1 double positive cells represent end stage plasma cells. Such plasma cells are gated (blue elliptic region) and percent plasma cells are shown. The conditions without inhibitor (0) and with linear Alk-inhibitor (crizotinib, A; ceritinib, B) are shown for concentrations 0.01 μM, 0.1 μM, 1 μM, 10 μM and 100 μM.

For test [3], the system named is HeLa cells expressing inducible IgM. In words: Apoptosis (caspase 3 cleavage immunoblot) in HeLa cells expressing inducible IgM. In kind it is cell-based. The conditions noted are these: 1 μM, 24 h. The procedure: as §1
HeLa cells were cultured in DMEM (GIBCO) supplemented with 10% FCS and 1% Penicillin/Streptomycin (GIBCO). For overexpression of plasmids, cells were transfected using either Fugene 6 or with TransIT-LT1 (Mirus). For knockdown experiments, cells were reverse transfected with 10 nM siRNA (final concentration) using HiPerfect (Qiagen) according to the manufacturer's instructions.
Cells were washed twice with PBS and collected in lysis buffer (50 mM Tris-HCl, pH7.4; 1 mM EDTA, 100 mM NaCl, 0.1% SDS and 1% NP-40) supplemented with proteinase and phosphatase inhibitor (Pierce Protease and Phosphatase Inhibitor Mini Tablets, EDTA-free). […]

By IC50 is commonly meant the concentration at which inhibition is half-maximal. A high value points to weaker potency in that assay. Regarding `C[C@@H](Oc1cc(-c2cnn(C3CCNCC3)c2)cnc1N)c1c(Cl)ccc(F)c1Cl` [crizotinib, 3-[(1R)-1-(2,6-dichloro-3-fluorophenyl)ethoxy]-5-(1-piperidin-4-ylpyrazol-4-yl)pyridin-2-amine], the IC50 in test [1] was 0.8 to 5 µM; in test [2], 1 to 1.5 µM; in the test on plasma cells, 0.8 µM. Further, the “inhibition of LTK (previously shown)” value on LTK is recorded as “previously been shown to inhibit LTK”. In addition, the ER-to-Golgi trafficking result in the test on HeLa cells is listed as “less of the reporter in the Golgi region”. Besides, in the test on ARH77, the cell viability entry is “clear reductions in cell viability”. For the same compound, in test [3] (HeLa cells with chronic increase of secretory burden (IgM 2 weeks)), the “apoptosis (caspase 3 cleavage)” value was “marked increase in apoptosis”. Also, the “apoptotic response (caspase 3 cleavage)” value in test [3] (non-secretory HeLa cells) was “did not show any apoptotic response”.
